Laboratory results from ChEMBL document CHEMBL3526037, “Evaluation of the relationship between sex, polymorphisms in CYP2C8 and CYP2C9, and pharmacokinetics of angiotensin receptor blockers” (Drug Metab Dispos, 2013).

How the values were obtained:
Format in all cases: ADME, organism-based
[1] = Tmax in human plasma expressing CYP2C8*2 allele carrier polymorphism at 80 mg by LC/MS/MS analysis
[2] = Half life in men plasma at 80 mg by LC/MS/MS analysis; details: male, human
[3] = Cmax in men plasma at 80 mg by LC/MS/MS analysis; set-up: dose 80 mg; details: male, human
[4] = Half life in women plasma at 80 mg by LC/MS/MS analysis; details: female, human
[5] = Tmax in human plasma expressing CYP2C9*3 allele carrier polymorphism at 80 mg by LC/MS/MS analysis
[6] = Half life in human plasma expressing CYP2C9*1/*1 polymorphism at 80 mg by LC/MS/MS analysis
[7] = Half life in human plasma expressing CYP2C8*1/*1 polymorphism at 80 mg by LC/MS/MS analysis
[8] = AUC in human plasma expressing CYP2C8*2 allele carrier polymorphism at 80 mg by LC/MS/MS analysis
[9] = AUC in human plasma expressing CYP2C8*3 allele carrier polymorphism at 80 mg by LC/MS/MS analysis
[10] = Tmax in women plasma at 80 mg by LC/MS/MS analysis; details: female, human
[11] = AUC in human plasma expressing CYP2C9*3 allele carrier polymorphism at 80 mg by LC/MS/MS analysis
[12] = Half life in human plasma expressing CYP2C9*3 allele carrier polymorphism at 80 mg by LC/MS/MS analysis
[13] = Tmax in men plasma at 80 mg by LC/MS/MS analysis; details: male, human
[14] = Tmax in human plasma expressing CYP2C9*1/*1 polymorphism at 80 mg by LC/MS/MS analysis
[15] = AUC in men plasma at 80 mg by LC/MS/MS analysis; details: male, human
[16] = Tmax in human plasma expressing CYP2C8*1/*1 polymorphism at 80 mg by LC/MS/MS analysis
[17] = Cmax in human plasma expressing CYP2C9*3 allele carrier polymorphism at 80 mg by LC/MS/MS analysis; set-up: dose 80 mg
[18] = AUC in women plasma at 80 mg by LC/MS/MS analysis; details: female, human
[19] = Cmax in human plasma expressing CYP2C8*2 allele carrier polymorphism at 80 mg by LC/MS/MS analysis; set-up: dose 80 mg
[20] = Half life in human plasma expressing CYP2C8*2 allele carrier polymorphism at 80 mg by LC/MS/MS analysis
[21] = AUC in human plasma expressing CYP2C9*1/*1 polymorphism at 80 mg by LC/MS/MS analysis
[22] = Tmax in human plasma expressing CYP2C8*3 allele carrier polymorphism at 80 mg by LC/MS/MS analysis
[23] = Cmax in human plasma expressing CYP2C9*1/*1 polymorphism at 80 mg by LC/MS/MS analysis; set-up: dose 80 mg
[24] = Half life in human plasma expressing CYP2C8*3 allele carrier polymorphism at 80 mg by LC/MS/MS analysis
[25] = Cmax in human plasma expressing CYP2C8*3 allele carrier polymorphism at 80 mg by LC/MS/MS analysis; set-up: dose 80 mg
[26] = Cmax in human plasma expressing CYP2C8*1/*1 polymorphism at 80 mg by LC/MS/MS analysis; set-up: dose 80 mg
[27] = AUC in human plasma expressing CYP2C8*1/*1 polymorphism at 80 mg by LC/MS/MS analysis
[28] = Cmax in women plasma at 80 mg by LC/MS/MS analysis; set-up: dose 80 mg; details: female, human

Tmax [1]: 1.3 h
half-life [2]: 25.1 h
Cmax [3]: 282 ng/mL
half-life [4]: 33.1 h
Tmax [5]: 1.1 h
half-life [6]: 29.7 h
half-life [7]: 28.7 h
AUC [8]: 3680 ng·h/mL
AUC [9]: 3230 ng·h/mL
Tmax [10]: 1.4 h
AUC [11]: 3400 ng·h/mL
half-life [12]: 30.1 h
Tmax [13]: 1.3 h
Tmax [14]: 1.4 h
AUC [15]: 2470 ng·h/mL
Tmax [16]: 1.4 h
Cmax [17]: 510 ng/mL
AUC [18]: 3680 ng·h/mL
Cmax [19]: 498 ng/mL
half-life [20]: 29.1 h
AUC [21]: 3130 ng·h/mL
Tmax [22]: 1 h
Cmax [23]: 446 ng/mL
half-life [24]: 33.9 h
Cmax [25]: 494 ng/mL
Cmax [26]: 437 ng/mL
AUC [27]: 3010 ng·h/mL
Cmax [28]: 590 ng/mL
Structure (SMILES): CCCc1nc2c(C)cc(-c3nc4ccccc4n3C)cc2n1Cc1ccc(-c2ccccc2C(=O)O)cc1
